We go through 17 compounds from patent EP0423221B1, “IMMUNOSUPPRESSIVE AGENTS” (THE UNIVERSITY OF SHEFFIELD, priority 1988, dated 1990).

In series [1] the test system is human mixed lymphocyte reaction. In words: human mixed lymphocyte reaction (inhibition of 3H-thymidine incorporation). The settings on record: for inhibition at 25 µM: Concentration of Solution 25 µM; for EC50: concentration which brings about 50% inhibition of ^3H-thymidine incorporation, read-out: Immunosuppressive activity ED50; for immunosuppressive activity compared with azathioprine: statement in words; for inhibition at 10 µM: Concentration of Solution 10 µM. In kind it is cell-based. From the text:
Fifteen of these compounds were screened for immunosuppressive activity by means of the human mixed lymphocyte reaction, which is well known and need not be further described here, the results of which are shown in Table 1.

Consider `Cn1cnc([N+](=O)[O-])c1Sc1nc2ccccc2[nH]1` [Compound 1], for which testing at 36 µM in series [1] (Homo sapiens, Lymphocyte, Concentration of Solution 36 µM) gave an inhibition of 98%.

Consider `Cc1ccc2[nH]c(Sc3c([N+](=O)[O-])ncn3C)nc2c1` [Compound 2], for which 25 µM produced 86% inhibition in series [1] (Homo sapiens, Lymphocyte).

Regarding `Cn1cnc([N+](=O)[O-])c1Sc1nc2cc(F)c(Cl)cc2[nH]1` [Compound 4], testing at 50 µM in series [1] (Homo sapiens, Lymphocyte, Concentration of Solution 50 µM) gave an inhibition of 59%.

Take `COc1cc2nc(Sc3c([N+](=O)[O-])ncn3C)[nH]c2cc1OC` [Compound 5]: in series [1] (Homo sapiens, Lymphocyte), the inhibition – broadly, the share of the control response that was lost under treatment – at 25 µM is 94%.

The compound `COc1ccc(OC)c2[nH]c(Sc3c([N+](=O)[O-])ncn3C)nc12` [Compound 6] came in with an inhibition at 25 µM in series [1] (Homo sapiens, Lymphocyte) of 41%.

`Cn1cnc([N+](=O)[O-])c1Sc1nc2ccccc2o1` [Compound 8]: the inhibition at 25 µM in series [1] (Homo sapiens, Lymphocyte) is 87%.

`Cn1cnc([N+](=O)[O-])c1Sc1nc2ccccc2s1` [Compound 9] yielded an inhibition at 25 µM in series [1] (Homo sapiens, Lymphocyte) of 27%.

On to `Cn1cnc([N+](=O)[O-])c1Sc1ncnc2[nH]c(O)nc12` [Compound 11], for which the EC50 in series [1] (Homo sapiens, Lymphocyte) is 24 µM. For the same compound, the “immunosuppressive activity compared with azathioprine” value in series [1] was “less immunosuppressive than azathioprine”. Besides, in the series with lymphocytes, the “toxicity to lymphocytes compared with azathioprine” value is “much less toxic to the lymphocytes”.

For `Cn1cnc([N+](=O)[O-])c1Sc1ccccc1C(=O)O` [Compound 13], the inhibition at 25 µM in series [1] (Homo sapiens, Lymphocyte) came to 34%.

Take `Cn1cnc([N+](=O)[O-])c1Sc1ccccn1` [Compound 15]: the inhibition at 25 µM in series [1] (Homo sapiens, Lymphocyte) turned out to be 76%.

In series [1] (Homo sapiens, Lymphocyte), `Cn1cnc([N+](=O)[O-])c1Sc1ncccn1` [Compound 16] returned an inhibition at 25 µM of 47%.

The compound `CCn1c(C)nc([N+](=O)[O-])c1Sc1nc(C)cc(C)n1` [Compound 18] registered an inhibition at 25 µM in series [1] (Homo sapiens, Lymphocyte) of 47%.

In the case of `Cn1cnc([N+](=O)[O-])c1Sc1nccc(O)n1` [Compound 19], the inhibition at 25 µM in series [1] (Homo sapiens, Lymphocyte) worked out at 29%.

As to `Cn1cnc([N+](=O)[O-])c1Sc1ncc[nH]1` [Compound 21], in series [1] (Homo sapiens, Lymphocyte), the inhibition at 10 µM was found to be 89% and the EC50 worked out at 2.8 µM. Moreover, in series [1], the “immunosuppressive activity compared with azathioprine” value was “substantially more immunosuppressive than azathioprine”. In addition, in the series on lymphocytes, the “toxicity to lymphocytes compared with azathioprine” value is given as “considerably less toxic to lymphocytes”.

On to `Cn1ccnc1Sc1c([N+](=O)[O-])ncn1C` [Compound 22], for which, in series [1] (Homo sapiens, Lymphocyte), the inhibition at 10 µM came out at 82% and the EC50 is 3.15 µM. In addition, the “immunosuppressive activity compared with azathioprine” value in series [1] is on record as “substantially more immunosuppressive than azathioprine”. The “toxicity to lymphocytes compared with azathioprine” value in the series with lymphocytes was “considerably less toxic to lymphocytes”.

For `CCOC(=O)CSc1c([N+](=O)[O-])ncn1C` [Compound 30], the inhibition at 25 µM in series [1] (Homo sapiens, Lymphocyte) amounted to 65%.

On to `Cn1cnc([N+](=O)[O-])c1Sc1ncnc2nc[nH]c12` [I (azathioprine), azathioprine, reference compound], for which, in series [1] (Homo sapiens, Lymphocyte), the inhibition at 25 µM was 79% and the EC50 is 7.9 µM. Moreover, in the series on lymphocytes (human), the “Toxicity LD25” value was 42.5. Further, the “Therapeutic index ED50/LD25” value in the series on lymphocytes (ratio of toxicity and immunosuppressive activity) turned out to be 5.38.
